The results in this text go back to patent EP4588921A1, “FREE BASE CRYSTAL FORM OF POLYCYCLIC COMPOUND OF NITROGEN-CONTAINING HETEROCYCLE, AND PREPARATION METHOD THEREFOR” (Jiangsu Hansoh Pharmaceutical Group Co., Ltd., priority 2022, dated 2024).

The target of one series is T1, human OX2R (Homo sapiens, UniProt O43614).
T1 construct: expressed in transfected cells; host or cells: CHO-K1
T1 sequence (O43614 1-444): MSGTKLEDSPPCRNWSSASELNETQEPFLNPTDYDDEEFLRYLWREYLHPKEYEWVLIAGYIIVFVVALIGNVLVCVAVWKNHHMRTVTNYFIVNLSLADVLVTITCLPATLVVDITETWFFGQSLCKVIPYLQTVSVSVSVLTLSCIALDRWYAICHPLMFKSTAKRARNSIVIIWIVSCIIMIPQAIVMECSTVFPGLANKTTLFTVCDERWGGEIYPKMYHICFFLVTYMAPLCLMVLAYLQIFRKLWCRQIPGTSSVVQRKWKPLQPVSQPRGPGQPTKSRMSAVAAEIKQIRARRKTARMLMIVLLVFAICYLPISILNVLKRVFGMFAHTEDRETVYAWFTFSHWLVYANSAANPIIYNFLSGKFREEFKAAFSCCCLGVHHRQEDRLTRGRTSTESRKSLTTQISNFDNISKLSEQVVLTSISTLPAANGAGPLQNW
Description: Calcium current (FLIPR) in cells stably expressing OX2 receptor. It counts as cell-based. To be noted: for IC50: CHO-K1/human OX2R cells, agonist OX-B at EC80, FLIPR Tetra; for Select fold: OX1R IC50 over OX2R IC50. The method, then: (§1) Determination of the effect of the compounds of the present invention on calcium current in cells stably expressing OX1 and OX2 receptors 1. Experimental objective: The inhibitory effect of the compounds on calcium current activity in CHO-K1/human OX1R and CHO-K1/human OX2R cells was detected. 2. […] 3. […] The IC50 of the positive compounds and test compounds was determined. 4. Experimental data processing method: FLIPR Tetra was used to read and collect the fluorescence signal value (RFU). […] 5.

A further series deals with T2, human OX1R (Homo sapiens, UniProt O43613).
T2 construct: expressed in transfected cells; host or cells: CHO-K1
T2 sequence (O43613 1-425): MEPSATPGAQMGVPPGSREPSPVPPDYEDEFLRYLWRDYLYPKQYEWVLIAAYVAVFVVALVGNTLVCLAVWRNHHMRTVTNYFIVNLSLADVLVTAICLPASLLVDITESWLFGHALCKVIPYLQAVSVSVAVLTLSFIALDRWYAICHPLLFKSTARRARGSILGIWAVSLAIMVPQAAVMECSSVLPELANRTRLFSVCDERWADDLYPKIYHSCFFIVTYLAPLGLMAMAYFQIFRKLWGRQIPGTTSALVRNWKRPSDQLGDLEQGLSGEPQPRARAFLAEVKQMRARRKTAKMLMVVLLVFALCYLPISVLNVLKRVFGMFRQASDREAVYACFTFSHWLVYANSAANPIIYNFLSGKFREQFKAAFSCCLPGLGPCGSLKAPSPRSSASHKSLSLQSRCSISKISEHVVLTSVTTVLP
Description: Calcium current (FLIPR) in cells stably expressing OX1 receptor. The note with it: CHO-K1/human OX1R cells; agonist OX-A at EC80; FLIPR Tetra. It counts as cell-based. The method, then: as §1

A further series is described as follows: in vivo. The note with it: male, SD, rat, po, 5 mg/kg. Here is the method:
SD rats were used as test animals to study the pharmacokinetic behaviour of the compounds of the present invention in rat (plasma) after oral administration at a dose of 5 mg/kg.
The example compound of the present invention, made in house.
Oral administration drug preparation: 20%HP-β-CD in Water
HP-β-CD powder (20 g) was weighed and dissolved in purified water (100 mL), and the mixture was homogeneously mixed by vortex and subjected to ultrasound treatment to afford a clear solution.
The example compound was weighed and added to a 20 mL glass bottle, the solution was added and the mixture was subjected to ultrasound treatment for 10 minutes to afford a colourless clear solution with a concentration of 0.5 mg/mL.
The brain tissues were rinsed with pre-cooled PBS, wiped dry, weighed, and stored at -80°C.
• 1) Acetonitrile (160 µL) was added to plasma sample (40 µL) for precipitation, and the mixture was mixed and centrifuged at 3500 × g for 5 to 20 minutes. • 2) The treated supernatant solution was taken and subjected to LC/MS/MS to analyse the concentrations of the test compounds. LC/MS/MS analysis instrument: AB Sciex API 4000 Qtrap.
• Liquid phase conditions: Shimadzu LC-20AD pump • Chromatographic column: Agilent ZORBAX XDB-C18 (50×2.1 mm, 3.5 µm) mobile phase: liquid A: 0.1% aqueous formic acid solution, liquid B: acetonitrile • Flow rate: 0.4 mL/min • Elution time: 0-4.0 min, the eluent is as follows:
The main pharmacokinetic parameters were calculated using WinNonlin 6.1.

A word on the IC50: it is the point on the concentration scale where inhibition reaches its midpoint. Take `Cc1nc(N2C[C@H]3CN(C(=O)c4ccc(F)cc4-n4nccn4)C[C@H]3C2)nc(C(C)(C)O)c1F` [Compound 10, (4-fluoro-2-(2H-1,2,3-triazol-2-yl)phenyl)((cis)-5-(5-fluoro-4-(2-hydroxypropan-2-yl)-6-methylpyrimidin-2-yl)hexahydropyrrolo [3,4-c]pyrrol-2(1H)-yl)methanone]: on human OX2R, the concentration for half-maximal inhibition (IC50) came out at 25.2 nM and the Select fold is listed as 48. In addition, on human OX1R, the IC50 was determined as 1200 nM.

Broadly, the AUC(0-inf) is total exposure, with the tail of the curve extrapolated. Lower therefore signals less exposure. The Cmax is the peak of the concentration-time curve. By Tmax is commonly meant the time from dosing to the highest level. In the case of `Cc1nc(N2C[C@H]3CN(C(=O)c4c(F)cccc4-c4ccccn4)C[C@H]3C2)nc(C(C)(C)O)c1F` [Compound 12, ((3aR,6aS)-5-(5-fluoro-4-(2-hydroxypropan-2-yl)-6-methylpyrimidin-2-yl)hexahydropyrrolo[3,4-c]pyrrol-2(1H)-yl)(2-fluoro-6-(pyridin-2-yl)phenyl)methanone], in the series “in vivo”, the AUC(0-inf) was determined as 335 ng·h/mL, the Cmax worked out at 420 ng/mL and the Tmax amounted to 30 min. At human OX2R, the IC50 was found to be 7.26 nM and the Select fold came to 36. For the same compound, the IC50 on human OX1R worked out at 263 nM.
